Reference: patent US20250213644A1, “COMPOSITIONS AND METHODS FOR TREATMENT OF BONE-RELATED DISEASE OR DISORDER” (priority 2021, published 2025)

Experiments:
newly formed bone = conditions: rats, after 6 to 8 weeks of treatment; cited from earlier work
human osteoblasts = test: Human osteoblast proliferation assay with or without SR144528; conditions: with CB2-selective antagonist SR144528
[1] = tested on: New-born mouse calvarial osteoblasts; test: Osteoblast proliferation assay (cell counts), WT and CB2−/− mouse-derived cultures
age-related bone loss = test: Prevention of age-related bone loss in male mice, μCT; assay type: in vivo, mouse; conditions: male mice treated from 3 to 6 months of age
CB2 = CB2 (Homo sapiens, UniProt P34972); conditions: increasing concentrations of 5aa-OGP; CHO-CB2-derived membranes
Chain of CB2 (P34972 whole entry): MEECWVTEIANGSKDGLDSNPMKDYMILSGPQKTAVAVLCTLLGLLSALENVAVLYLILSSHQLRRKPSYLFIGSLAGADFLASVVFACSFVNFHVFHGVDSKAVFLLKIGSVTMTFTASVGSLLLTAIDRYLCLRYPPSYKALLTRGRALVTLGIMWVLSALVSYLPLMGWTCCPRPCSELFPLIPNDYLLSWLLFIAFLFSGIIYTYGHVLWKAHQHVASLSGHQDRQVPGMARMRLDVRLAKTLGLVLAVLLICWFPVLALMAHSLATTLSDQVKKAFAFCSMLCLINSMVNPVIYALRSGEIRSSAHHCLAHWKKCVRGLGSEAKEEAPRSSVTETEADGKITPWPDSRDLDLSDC

[2] = tested on: Ti particle-induced osteolysis; test: Calvarial osteolysis model, Ti particle-induced osteolysis, μCT; assay type: in vivo, mouse; conditions: fibrin membranes with Ti particles loaded with 10^−11M 5aa-OGP on mice calvaria; 4 weeks post-op
Source text: FIGS. 5A-5C show the effect of topically administered 5aa-OGP on Ti particle-induced osteolysis in vivo: Fibrin membranes including titanium particles derived from sand-blasted Ti implants, with 5aa-OGP (TiP+5aa-OGP) or with saline (TiP) were implanted onto mice calvaria. Membranes with no TiP were inserted in the control group. Mice were sacrificed 4 weeks post-op. and subjected to CT analysis. FIG. 5A—Pit Resorption Volume over total volume (PR.V/TV), FIG. 5B—Bone volume in the region of interest, chiefly representing the calvarial thickness), and FIG. 5C—Representative CT images of the calvaria. Data are expressed as mean±SD (n=4). *p<0.05 vs. Titanium.
Calvarial Osteolysis Model. To test the direct effect of Ti particles on inflammation-induced osteolysis in vivo, a mouse calvaria model and μCT analysis specifically designed in our laboratory was used. […]
μCT analysis—All specimens were scanned and analyzed using a μCT system (CT 50, Scanco Medical AG, Switzerland). […]
A custom-made algorithm based on Image-Processing Language (IPL, Scanco Medical) was developed to isolate the resorption pits, defined as unmineralized pits that were […] deep on the bone surface. The measured resorption volume was limited to a […] depth because beyond that, the resorption pit was connected to the internal diploe. […]

OVX-induced bone loss = test: Rescue of OVX-induced bone loss, μCT of femora; assay type: in vivo, mouse
[3] = mouse-derived osteoblast cultures, 48-hour incubation
[4] = WT OVX mice, 10 ng/day s.c. for 6 weeks

Molecule	Quality and biomechanical properties (e.g. bone strength) of the newly formed bone (newly formed bone)	Proliferative effect in human osteoblasts (human osteoblasts)	Osteoblastic proliferative activity [1, 3]	Trabecular connectivity density (age-related bone loss)	Trabecular number (age-related bone loss)	Trabecular thickness (age-related bone loss)	Displacement of tritiated CP55,940 (CB2)	Bone volume in the calvaria (region of interest) [2]	Ti particle-induced osteolysis (Pit Resorption Volume over total volume, PR.V/TV) [2]	Osteoblastic proliferative activity ([1]; CB2−/−-derived murine osteoblasts (genetic ablation of CB2))	Any of the measured bone parameters (OVX-induced bone loss; OVX CB2−/− animals, 10 ng/day s.c. for 6 weeks)	Cortical bone parameters (OVX-induced bone loss; [4])	Trabecular number (Tb.N) (OVX-induced bone loss; [4])	Trabecular thickness (Tb.Th) (OVX-induced bone loss; [4])	Trabecular volumetric bone mineral density (vBMD) (OVX-induced bone loss; [4])	Trabecular bone volume fraction (BV/TV), change vs. OVX, VEH-treated mice (OVX-induced bone loss; WT OVX mice, 10 ng/day s.c. once a day for 6 weeks, starting 6 weeks post-OVX, p=0.035)
C=C(C)[C@@H]1CCC(C)=C[C@H]1c1c(O)cc(CCCCC)cc1O [CBD, Cannabidiol]	enhanced	–	–	–	–	–	–	–	–	–	–	–	–	–	–	–
CCCCCCC(C)(C)c1cc(OC)c(C2=C[C@H]3CC[C@]2(CO)C3(C)C)c(OC)c1 [HU-910, reference compound]	–	abrogated	nearly an identical dose response relationship	–	–	–	–	–	–	–	–	–	–	–	–	–
YGFGG (listed as Homo sp.) [5aa-OGP]	–	abrogated	nearly an identical dose response relationship	significantly increased	significantly increased	significantly increased	did not displace CP55,940	increased bone volume	completely prevented this bone loss	completely abrogated	no effect	did not affect	significant increases	significant increases	significant increases	+45.9%
